Experimental data reported in publication PMC11109252, “Synthetic aporphine alkaloids are potential therapeutics for Leigh syndrome” (Scientific Reports, 2024).
“Also recorded” adds a separate entry of the source.

Experiments:
[1] = tested on: LS patient-derived skin fibroblasts; assay: Anti-BSO-induced cell death activity assay; settings: Homo sapiens, Skin fibroblast, 48 h, read-out: Anti-BSO-induced cell death effect EC50, co-added with BSO at a concentration giving 10%-20% cell viability; viable cells 48 h after addition
dopamine D2 receptors = target: T1, dopamine D2 receptors (Homo sapiens, UniProt P14416); assay: Dopamine D2 receptor agonist assay (GeneBLAzer D2-Gqo5-NFAT-bla CHO-K1 reporter); type: cell-based; settings: CHO cells stably expressing dopamine D2 receptors; NA: no activity; read-out: Dopamine D2 receptor agonist (DA) activity EC50
T1 construct: host or cells: CHO-K1 (GeneBLAzer D2-Gqo5-NFAT-bla)
Method: CHO-K1 cells were spread in 384-well plates at 10,000 cells/32 μL/well, taking care not to touch the bottom of the wells. Cell-free-wells were injected with the same volume (32 μL) of assay medium. The plates were then incubated in a CO2 incubator for 16–20 h. […] The diluted solution (8 μL/well) was added to 384-well plates seeded with CHO-K1 cells and incubated in a CO2 incubator for 5 h. […] The addition of the drug induces D2 receptor activation, which activates signaling pathways and transcription factors, resulting in the expression of a reporter gene (β-lactamase) and cleavage of the fluorescence resonance energy transfer (FRET) substrate, causing the fluorescence to change from green to blue.

[2] = tested on: LS patient-derived skin fibroblasts; assay: Anti-RSL3-induced cell death activity assay; type: cell-based; settings: Homo sapiens, Skin fibroblast, read-out: Anti-RSL3-induced cell death effect EC50
Method: RSL3 is a glutathione peroxidase 4 (GPx4) inhibitor that specifically induces ferroptosis. Ferroptosis is an iron-dependent non-apoptotic type of cell death caused by lipid peroxidation.
After 24 h of incubation, the reagents were added to the RSL3 (−) derivative (−) and RSL3 ( +) derivative ( +) groups. […] The final concentration of RSL3 was 50–200 nM that would cause approximately 80–90% cell death after 24 h of incubation. The percentage of viable cells was measured 24 h after addition of each reagent.

GDF-15 = GDF-15 levels in the cell supernatant (ELISA); type: cell-based, human; settings: 24 h after co-administration with RSL3, compared to RSL3-only
Method: GDF-15 is a biomarker that is elevated in the blood of patients with mitochondrial diseases and is used for the diagnosis of mitochondrial diseases and determination of therapeutic efficacy[26],[36]. […] As previously reported, GDF-15 levels were measured by an enzyme-linked immuno sorbent assay (ELISA) using the Quantikin Human GDF-15 ELISA Kit (R&D Systems, Minneapolis, MN, USA). Samples were obtained from anti-RSL3-induced cell death assays with candidate compounds (D31, D55, and D40), and cell supernatants 24 h after reagent addition were used for the assay. Measured values were calculated with reference to internal standards and compared to GDF-15 values.

[3] = tested on: LS patient-derived skin fibroblasts; assay: Mitochondrial ATP production capacity (extracellular flux analyzer, OCR); type: cell-based, human; settings: 100 nM compound
Description: The extracellular flux analyzer Seahorse XFe96 (Agilent Technologies, Santa Clara, CA, USA) was used to evaluate the mitochondrial function. The extracellular flux analyzer measures the oxygen consumption rate (OCR) in the mitochondria during ATP synthesis and can also evaluate the intracellular mitochondrial function. The endpoints were the basal OCR, ATP-linked OCR, maximal OCR, and spare capacity, which are key indicators of the mitochondrial function in assays using living cells. Each indicator was calculated by continuously adding ATP synthase inhibitors (oligomycin, rotenone and antimycin A) and deconjugating agents (carbonyl cyanide-p-trifluoromethoxyphenylhydrazone [FCCP]) during the measurement (Fig. 6). […] The OCR was measured over time by adding oligomycin (2 μM concentration) 20 min after drug addition, FCCP (2 μM concentration) 50 min later, and rotenone and antimycin A (0.5 μM concentration) 80 min later.

T1 sequence (P14416 whole entry): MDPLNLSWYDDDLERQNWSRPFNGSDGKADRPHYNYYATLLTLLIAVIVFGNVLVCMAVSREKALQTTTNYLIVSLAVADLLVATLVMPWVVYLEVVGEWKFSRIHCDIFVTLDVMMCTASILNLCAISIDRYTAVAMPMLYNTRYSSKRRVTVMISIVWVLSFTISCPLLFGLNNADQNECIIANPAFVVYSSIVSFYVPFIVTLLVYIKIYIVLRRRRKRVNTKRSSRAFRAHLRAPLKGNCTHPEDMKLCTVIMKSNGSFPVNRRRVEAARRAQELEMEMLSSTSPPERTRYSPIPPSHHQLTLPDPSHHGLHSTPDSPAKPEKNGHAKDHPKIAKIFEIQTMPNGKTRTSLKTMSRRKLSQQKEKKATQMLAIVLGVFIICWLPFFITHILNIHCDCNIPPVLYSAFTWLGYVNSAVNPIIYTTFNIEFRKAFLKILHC

SMILES | EC50 [1] [nM] | other results
CN1CCc2cccc3c2[C@H]1Cc1ccc(OCCc2ccccc2)c(O)c1-3 [D48, (9R)-10-methyl-4-(2-phenylethoxy)-10-azatetracyclo[7.7.1.0²,⁷.0¹³,¹⁷]heptadeca-1(17),2,4,6,13,15-hexaen-3-ol] | 128 | –
COc1cc2c(cc1O)C[C@@H]1c3c(cc(O)c(OC)c3-2)CCN1C [D19, (9R)-4,16-dimethoxy-10-methyl-10-azatetracyclo[7.7.1.0²,⁷.0¹³,¹⁷]heptadeca-1(17),2,4,6,13,15-hexaene-5,15-diol] | 5180 | –
CCCN1CCc2cccc3c2[C@H]1Cc1ccc2c(c1-3)OCO2 [D5, (12R)-13-propyl-4,6-dioxa-13-azapentacyclo[10.7.1.0²,¹⁰.0³,⁷.0¹⁶,²⁰]icosa-1(20),2,7,9,16,18-hexaene] | 2110 | –
CCCCOc1ccc2c(c1O)-c1cccc3c1[C@@H](C2)N(C)CC3 [D36, (9R)-4-butoxy-10-methyl-10-azatetracyclo[7.7.1.0²,⁷.0¹³,¹⁷]heptadeca-1(17),2,4,6,13,15-hexaen-3-ol] | 123 | –
CN1CCc2cccc3c2[C@H]1Cc1ccc(OCCC(c2ccccc2)c2ccccc2)c(O)c1-3 [D54, (9R)-4-(3,3-diphenylpropoxy)-10-methyl-10-azatetracyclo[7.7.1.0²,⁷.0¹³,¹⁷]heptadeca-1(17),2,4,6,13,15-hexaen-3-ol] | 497 | –
CN1CCc2cccc3c2[C@H]1Cc1ccc(OCCCN)c(O)c1-3 [D27, (9R)-4-(3-aminopropoxy)-10-methyl-10-azatetracyclo[7.7.1.0²,⁷.0¹³,¹⁷]heptadeca-1(17),2,4,6,13,15-hexaen-3-ol] | 221 | EC50 (dopamine D2 receptors): 254 nM
CN1CCc2cccc3c2[C@H]1Cc1ccc(OCCCO)c(O)c1-3 [D38, (9R)-4-(3-hydroxypropoxy)-10-methyl-10-azatetracyclo[7.7.1.0²,⁷.0¹³,¹⁷]heptadeca-1(17),2,4,6,13,15-hexaen-3-ol] | 165 | EC50 (dopamine D2 receptors): 3650 nM
CN1CCc2cccc3c2[C@H]1Cc1ccc(OCCCc2ccccc2)c(O)c1-3 [D37, (9R)-10-methyl-4-(3-phenylpropoxy)-10-azatetracyclo[7.7.1.0²,⁷.0¹³,¹⁷]heptadeca-1(17),2,4,6,13,15-hexaen-3-ol] | 186 | –
CN1CCc2cccc3c2[C@H]1Cc1ccc(-c2ccccc2)c(O)c1-3 [D45, (9R)-10-methyl-4-phenyl-10-azatetracyclo[7.7.1.0²,⁷.0¹³,¹⁷]heptadeca-1(17),2,4,6,13,15-hexaen-3-ol] | < 100 | EC50 (dopamine D2 receptors): 2630 nM; EC50 ([2]; co-added with RSL3 at a concentration giving 10%-20% cell viability, viable cells 24 h after addition): 745 nM
CCCCCCCCCOc1ccc2c(c1O)-c1cccc3c1[C@@H](C2)N(C)CC3 [D41, (9R)-10-methyl-4-(nonyloxy)-10-azatetracyclo[7.7.1.0²,⁷.0¹³,¹⁷]heptadeca-1(17),2,4,6,13,15-hexaen-3-ol] | 648 | –
CCOc1ccc2c(c1O)-c1cccc3c1[C@@H](C2)N(C)CC3 [D55, (9R)-4-ethoxy-10-methyl-10-azatetracyclo[7.7.1.0²,⁷.0¹³,¹⁷]heptadeca-1(17),2,4,6,13,15-hexaen-3-ol] | – | GDF-15 elevation in cell supernatant (GDF-15): suppressed GDF-15 elevation; also recorded: significant decrease; Enhancement of mitochondrial ATP production [3]: showed any ability to enhance mitochondrial ATP production; also recorded: No significant enhancement; EC50 ([2]; 24 h): 21 nM
CCOC(=O)c1ccc(NC2CCCCC2)c(N)c1 [ferrostatin-1, reference compound] | – | GDF-15 elevation in cell supernatant (GDF-15): significant decrease
CN1CCc2cc3c(c4c2[C@@H]1Cc1ccccc1-4)OCO3 [D18, (12S)-11-methyl-3,5-dioxa-11-azapentacyclo[10.7.1.0²,⁶.0⁸,²⁰.0¹⁴,¹⁹]icosa-1(20),2(6),7,14,16,18-hexaene] | 492 | –
CN1CCc2cccc3c2[C@H]1Cc1ccc(O)c(O)c1-3 [D15, (9R)-10-methyl-10-azatetracyclo[7.7.1.0²,⁷.0¹³,¹⁷]heptadeca-1(17),2,4,6,13,15-hexaene-3,4-diol, reference compound] | 613 | –
COc1cc2c(cc1OC)-c1c(OC)c(OC)cc3c1[C@@H](C2)N(C)CC3 [D11, (9R)-4,5,15,16-tetramethoxy-10-methyl-10-azatetracyclo[7.7.1.0²,⁷.0¹³,¹⁷]heptadeca-1(17),2,4,6,13,15-hexaene] | 6920 | –
CN1CCc2cccc3c2[C@H]1Cc1ccc(OCc2ccccc2)c(O)c1-3 [D47, (9R)-4-(benzyloxy)-10-methyl-10-azatetracyclo[7.7.1.0²,⁷.0¹³,¹⁷]heptadeca-1(17),2,4,6,13,15-hexaen-3-ol] | 124 | –
COc1cc2c(cc1O)CC1NCCc3cc(OC)c(OC)c-2c31 (centres unmarked) [D25, 4,15,16-trimethoxy-10-azatetracyclo[7.7.1.0²,⁷.0¹³,¹⁷]heptadeca-1(17),2(7),3,5,13,15-hexaen-5-ol] | 2050 | –
COc1cc2c3c(c1O)-c1c(ccc(OC)c1OC)C[C@H]3N(C)CC2 [D26, (9R)-3,4,15-trimethoxy-10-methyl-10-azatetracyclo[7.7.1.0²,⁷.0¹³,¹⁷]heptadeca-1(17),2,4,6,13,15-hexaen-16-ol] | 289 | –
COc1ccc2c(c1OC)C[C@@H]1c3c(cc4c(c3-2)OCO4)CCN1C [D8, (12R)-15,16-dimethoxy-11-methyl-3,5-dioxa-11-azapentacyclo[10.7.1.0²,⁶.0⁸,²⁰.0¹⁴,¹⁹]icosa-1(20),2(6),7,14,16,18-hexaene] | 180 | –
Oc1ccc2c(c1O)-c1cccc3c1[C@@H](C2)NCC3 [D4, (9R)-10-azatetracyclo[7.7.1.0²,⁷.0¹³,¹⁷]heptadeca-1(17),2,4,6,13,15-hexaene-3,4-diol] | 1990 | EC50 (dopamine D2 receptors): 582 nM
COc1cc(O)c2c(c1)C[C@@H]1c3c(cc4c(c3-2)OCO4)CCN1C [D10, (12R)-16-methoxy-11-methyl-3,5-dioxa-11-azapentacyclo[10.7.1.0²,⁶.0⁸,²⁰.0¹⁴,¹⁹]icosa-1(20),2(6),7,14,16,18-hexaen-18-ol] | 750 | –
CN1CCc2cccc3c2[C@H]1Cc1ccc(OCCCC(F)(F)F)c(O)c1-3 [D42, (9R)-10-methyl-4-(4,4,4-trifluorobutoxy)-10-azatetracyclo[7.7.1.0²,⁷.0¹³,¹⁷]heptadeca-1(17),2,4,6,13,15-hexaen-3-ol] | 167 | –
COc1cccc2c1C[C@@H]1c3c(cc4c(c3-2)OCO4)CCN1C [D9, (12R)-15-methoxy-11-methyl-3,5-dioxa-11-azapentacyclo[10.7.1.0²,⁶.0⁸,²⁰.0¹⁴,¹⁹]icosa-1(20),2(6),7,14,16,18-hexaene] | 393 | –
CN1CCc2cccc3c2[C@H]1Cc1ccc(OCCCCc2ccccc2)c(O)c1-3 [D50, (9R)-10-methyl-4-(4-phenylbutoxy)-10-azatetracyclo[7.7.1.0²,⁷.0¹³,¹⁷]heptadeca-1(17),2,4,6,13,15-hexaen-3-ol] | 207 | –
COc1cc2c(cc1OC)-c1c3c(c(OC)c4c1C(C2)N(C)CC4)OCO3 (centres unmarked) [D20, 7,16,17-trimethoxy-11-methyl-3,5-dioxa-11-azapentacyclo[10.7.1.0²,⁶.0⁸,²⁰.0¹⁴,¹⁹]icosa-1(20),2(6),7,14,16,18-hexaene] | 798 | –
CN1CCc2cccc3c2[C@H]1Cc1ccc(OCCCCl)c(O)c1-3 [D39, (9R)-4-(3-chloropropoxy)-10-methyl-10-azatetracyclo[7.7.1.0²,⁷.0¹³,¹⁷]heptadeca-1(17),2,4,6,13,15-hexaen-3-ol] | 259 | –
CN1CCc2cccc3c2[C@@H]1Cc1ccc(O)c(O)c1-3 [D24, (9S)-10-methyl-10-azatetracyclo[7.7.1.0²,⁷.0¹³,¹⁷]heptadeca-1(17),2(7),3,5,13,15-hexaene-3,4-diol] | 1030 | –
CCCN1CCc2cccc3c2[C@H]1Cc1ccc(O)c(O)c1-3 [D3, (9R)-10-propyl-10-azatetracyclo[7.7.1.0²,⁷.0¹³,¹⁷]heptadeca-1(17),2,4,6,13,15-hexaene-3,4-diol] | 186 | –
